Data reported in patent US20160074374A1, “CORRECTORS ACTING THROUGH MSD1 OF CFTR PROTEIN” (VERTEX PHARMACEUTICALS INCORPORATED, priority 2013, published 2016).
Entries after “also recorded” stand apart in the source; their conditions may differ.

Assays:
[1] = biological target: ΔF508-CFTR (Homo sapiens, UniProt P13569, DEL508-508); set-up: primary cultures of human bronchial epithelial cells isolated from subjects with CF; host or cells: primary human bronchial epithelial cells (Van Goor 2011); CF patients in a 28-day study (Clancy 2012); conditions: bronchial epithelial cells from CF subjects; cited from earlier work
Chain of ΔF508-CFTR (P13569 with tags, fused parts or gaps DEL508-508): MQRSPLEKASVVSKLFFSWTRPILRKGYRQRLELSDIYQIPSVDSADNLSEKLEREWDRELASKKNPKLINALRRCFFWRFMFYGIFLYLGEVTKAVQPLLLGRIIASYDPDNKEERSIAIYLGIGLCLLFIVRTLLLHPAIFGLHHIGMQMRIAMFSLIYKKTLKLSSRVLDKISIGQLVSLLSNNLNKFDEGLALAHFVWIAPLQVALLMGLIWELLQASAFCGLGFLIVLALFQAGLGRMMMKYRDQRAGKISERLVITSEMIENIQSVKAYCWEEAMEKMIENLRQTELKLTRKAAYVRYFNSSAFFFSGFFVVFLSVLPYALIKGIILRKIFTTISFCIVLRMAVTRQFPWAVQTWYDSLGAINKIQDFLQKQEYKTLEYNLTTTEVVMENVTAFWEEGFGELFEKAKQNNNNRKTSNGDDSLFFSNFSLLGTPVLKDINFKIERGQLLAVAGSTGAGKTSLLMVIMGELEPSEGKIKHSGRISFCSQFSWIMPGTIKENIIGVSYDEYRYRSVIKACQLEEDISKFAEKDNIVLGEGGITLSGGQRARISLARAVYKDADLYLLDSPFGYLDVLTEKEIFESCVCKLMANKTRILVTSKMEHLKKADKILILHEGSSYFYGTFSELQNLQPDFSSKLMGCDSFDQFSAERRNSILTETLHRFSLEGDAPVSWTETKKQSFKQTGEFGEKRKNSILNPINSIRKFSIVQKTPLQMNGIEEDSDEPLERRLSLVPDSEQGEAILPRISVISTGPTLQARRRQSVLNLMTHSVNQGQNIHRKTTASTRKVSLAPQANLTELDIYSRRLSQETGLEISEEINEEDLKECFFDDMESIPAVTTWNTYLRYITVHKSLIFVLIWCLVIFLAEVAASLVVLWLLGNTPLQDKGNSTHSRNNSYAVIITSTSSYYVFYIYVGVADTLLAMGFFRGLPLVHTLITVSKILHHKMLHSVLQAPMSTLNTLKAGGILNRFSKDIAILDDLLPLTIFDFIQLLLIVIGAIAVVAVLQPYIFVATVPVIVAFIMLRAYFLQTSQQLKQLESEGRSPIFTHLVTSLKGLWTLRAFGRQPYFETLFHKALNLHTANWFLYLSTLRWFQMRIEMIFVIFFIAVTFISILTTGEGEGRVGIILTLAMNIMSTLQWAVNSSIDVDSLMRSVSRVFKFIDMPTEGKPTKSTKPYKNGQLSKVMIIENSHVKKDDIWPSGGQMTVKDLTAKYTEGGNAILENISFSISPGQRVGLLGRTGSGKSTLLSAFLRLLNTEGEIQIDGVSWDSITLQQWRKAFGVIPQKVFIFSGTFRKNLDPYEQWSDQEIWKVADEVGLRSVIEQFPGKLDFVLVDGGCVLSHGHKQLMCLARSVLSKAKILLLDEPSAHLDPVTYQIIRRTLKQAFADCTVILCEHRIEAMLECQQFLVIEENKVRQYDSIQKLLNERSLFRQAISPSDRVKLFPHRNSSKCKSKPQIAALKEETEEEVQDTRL

[2] = biological target: T1, mutant CFTR (Homo sapiens, UniProt P13569, E92K); assay: Ussing chamber forskolin-stimulated chloride transport in Fisher Rat Thyroid cells expressing CFTR mutants; type: cell-based; conditions: Corr4a 15 μM
T1 construct: expressed in transfected cells
T1 sequence (P13569 whole entry E92K): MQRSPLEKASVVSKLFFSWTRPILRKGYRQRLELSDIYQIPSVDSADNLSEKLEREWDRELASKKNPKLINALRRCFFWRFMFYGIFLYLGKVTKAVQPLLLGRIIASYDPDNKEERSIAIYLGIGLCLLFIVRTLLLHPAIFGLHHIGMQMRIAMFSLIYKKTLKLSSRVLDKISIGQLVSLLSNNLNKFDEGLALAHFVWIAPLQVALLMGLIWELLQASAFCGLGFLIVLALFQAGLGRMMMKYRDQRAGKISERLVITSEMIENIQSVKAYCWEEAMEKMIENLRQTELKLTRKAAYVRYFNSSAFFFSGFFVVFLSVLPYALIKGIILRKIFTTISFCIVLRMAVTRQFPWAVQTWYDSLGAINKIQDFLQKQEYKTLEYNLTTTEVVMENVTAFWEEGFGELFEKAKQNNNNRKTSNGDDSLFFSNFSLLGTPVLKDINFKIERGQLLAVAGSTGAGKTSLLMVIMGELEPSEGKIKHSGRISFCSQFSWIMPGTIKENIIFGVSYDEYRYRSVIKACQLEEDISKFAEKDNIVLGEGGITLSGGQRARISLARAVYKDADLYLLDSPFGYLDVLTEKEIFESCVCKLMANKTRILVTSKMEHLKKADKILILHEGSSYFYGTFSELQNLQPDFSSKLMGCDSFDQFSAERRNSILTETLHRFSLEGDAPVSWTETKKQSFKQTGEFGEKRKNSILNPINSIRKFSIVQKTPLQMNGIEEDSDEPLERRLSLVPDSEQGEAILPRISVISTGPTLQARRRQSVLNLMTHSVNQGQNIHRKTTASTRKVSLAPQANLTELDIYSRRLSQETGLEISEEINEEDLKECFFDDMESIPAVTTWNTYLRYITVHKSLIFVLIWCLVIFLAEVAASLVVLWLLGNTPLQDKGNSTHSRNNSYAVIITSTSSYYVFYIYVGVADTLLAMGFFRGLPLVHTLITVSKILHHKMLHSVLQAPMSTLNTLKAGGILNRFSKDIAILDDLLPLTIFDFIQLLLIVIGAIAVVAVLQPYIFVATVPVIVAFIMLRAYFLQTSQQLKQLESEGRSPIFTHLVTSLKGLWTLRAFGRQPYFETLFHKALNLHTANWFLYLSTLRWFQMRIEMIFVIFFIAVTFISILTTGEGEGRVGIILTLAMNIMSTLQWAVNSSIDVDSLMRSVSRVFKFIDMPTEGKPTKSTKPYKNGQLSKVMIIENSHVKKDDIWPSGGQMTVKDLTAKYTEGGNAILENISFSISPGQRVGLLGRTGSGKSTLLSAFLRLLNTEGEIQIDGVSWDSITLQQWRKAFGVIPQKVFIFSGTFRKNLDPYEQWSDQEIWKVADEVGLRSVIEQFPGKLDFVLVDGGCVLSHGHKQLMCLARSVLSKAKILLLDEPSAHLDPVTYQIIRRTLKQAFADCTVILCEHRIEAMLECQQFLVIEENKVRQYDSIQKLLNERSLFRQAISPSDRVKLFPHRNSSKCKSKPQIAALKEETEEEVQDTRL
Experimental: Ussing chamber techniques with Fisher Rat Thyroid cells that are stably transfected with the indicated form of CFTR are used to record the transepithelial current (IT) resulting from CFTR-mediated chloride transport (Van Goor, et al., 2009, PNAS, 106: 18825-30). Standard conditions for Ussing chamber electrophysiological with different forms of CFTR measured forskolin (10 μM)-stimulated chloride transport that peaked at 205.5 μA/cm2 for normal CFTR.

[3] = biological target: V232D-CFTR (Homo sapiens, UniProt P13569, V232D); conditions: cited from earlier work
Chain of V232D-CFTR (P13569 whole entry V232D, the tested form may be a part): as the sequence (P13569 whole entry E92K) above, with K92E, V232D counted along it

[4] = biological target: T2, N-terminal CFTR fragments (Homo sapiens, UniProt P13569); assay: Steady-state accumulation of CFTR fragments, western blot, HEK293 cells; type: cell-based; conditions: bortezomib 10 μM
T2 construct: Indicated CFTR fragments were generated via introduction of a stop codon after the specified residue; expressed in transfected cells; host or cells: HEK293, transient, pcDNA3.1(+)-CFTR derivatives
Experimental: Steady-state levels of CFTR and its mutants are determined by western blot analysis. HEK293 cells are transiently transfected with the indicated plasmids (Grove, et al., 2011, Mol Biol Cell, 22: 301-14). The transfected cells are allowed to recover for approximately 18 hrs before addition of DMEM and then supplemented with lumacaftor or DMSO (control). The cells are incubated with the correctors for 24 hrs before isolating the cells for western blot analysis. The harvested cells are diluted with 2×SDS sample buffer (100 mM Tris-HCl (pH 6.8)/4% SDS/0.05% Bromophenol Blue/20% glycerol), sonicated, and heated at 37° C. prior to resolving the proteins on SDS-PAGE gels. The proteins are transferred to nitrocellulose membranes and the membranes are probed with the designated antibodies. Tubulin is used to indicate loading controls.
A set of CFTR fragments with domain boundaries that permitted them to accumulate in unstable or stable states are expressed in HEK293 cells, and the effect of 5 μM lumacaftor on the accumulation of different fragments is determined. As a point of reference, the impact of the proteasome inhibitor bortezomib on CFTR fragment accumulation is also measured.
Cells are treated for 4 hours with bortezomib or 18 hours at 37° C. with lumacaftor. The amount of CFTR fragment accumulation is determined by immunoblot.
To identify regions of CFTR required for lumacaftor activity, different length CFTR fragments were expressed in HEK-293 cells and their steady-state accumulation and half-life were quantified in biochemical assays (FIGS. 1A and B; FIG. 2). Since CFTR folding initiates cotranslationally and channel assembly is completed post-translationally (Higgins, 1992, Annual Review of Cell Biology, 8:67-113), CFTR fragments which may resemble folding intermediates have been used to study CFTR biogenesis. The underlying rationale is that differences in accumulation or half-life between different length CFTR fragments are believed to reflect differences in the stability of the protein conformation and resistance to endoplasmic reticulum associated degradation (ERAD). […] Differences in accumulation and halflife of CFTR fragments have been used successfully to identify Hsp70- and calnexin-dependent steps in CFTR folding and degradation pathways (Farinha and Amaral, 2005, Mol Cell Biol, 25:5242-52; Lukacs and Verkman, […], EMBO Journal, 13:6076-86; Meacham et al., 1999, EMBO Journal, 18:1492-1505; Okiyoneda et al., 2004, Mol Biol Cell, 15:563-574), to identify defective interactions between MSD1, NBD1 and MSD2 as an underlying cause of premature degradation of ΔF508-CFTR (Cui et al., 2007, J Mol Biol, 365:981-994; Du and Lukacs, 2009, Molecular Biology of the Cell, 20:1903-1915; Younger et al., 2006, Cell, 126:571-582), and to identify MSD2 as the site of action of the CFTR corrector, Corr-4a.

[5] = compared to CFTR^430 and CFTR^653

Row | Compound | ΔF508-CFTR function [1] | restoration of E92K-CFTR function [2] | V232D-CFTR biogenesis and function [3] | increase in accumulation of CFTR^370 ([4]; 4 hours) [fold] | increase in accumulation of CFTR^530 ([4]; 4 hours) [fold] | sensitivity of CFTR^430 accumulation to proteasome inhibition ([4]; 4 hours) | sensitivity of CFTR^653 accumulation to proteasome inhibition ([4]; 4 hours) | effect of proteasome inhibition on CFTR^370 [4, 5] | effect of proteasome inhibition on CFTR^530 [4, 5]
1 | COc1ccc(Cl)cc1Nc1nc(-c2sc(NC(=O)c3ccccc3)nc2C)cs1 [Corr-4a] | partially restored | could not restore | to normal levels |  |  |  |  |  | 
2 | CC(C)C[C@H](NC(=O)[C@H](Cc1ccccc1)NC(=O)c1cnccn1)B(O)O [bortezomib] |  |  |  | 10 | 10 | relatively insensitive | relatively insensitive | more susceptible; also recorded: able to increase the stability | more susceptible
